Results on one compound are retold here after paper PMC9950073, “Alleviation of arthritis through prevention of neutrophil extracellular traps by an orally available inhibitor of protein arginine deiminase 4” (Scientific Reports, 2023).

In general, AUC(0-inf) refers to total exposure, with the tail of the curve extrapolated. In general, AUC(0-t) refers to the area under the concentration-time curve up to a stated or last time point. Higher therefore signals more exposure. A word on the Cmax: it is the maximum level reached in the sampled fluid or tissue. Broadly, the Vd is a proportionality between amount in the body and measured concentration, not a real space. As a reminder, the clearance is a measure of how efficiently the substance is removed, as volume per time. As usually defined, the half-life is the time in which the quantity being followed falls by half. For orientation: bioavailability means dose-corrected exposure relative to a reference, in per cent.

In one series the target is T1, human recombinant PAD3 (Homo sapiens, UniProt Q9ULW8).
T1 construct: purchased Cayman Chemicals 10786
T1 sequence (Q9ULW8 1-664): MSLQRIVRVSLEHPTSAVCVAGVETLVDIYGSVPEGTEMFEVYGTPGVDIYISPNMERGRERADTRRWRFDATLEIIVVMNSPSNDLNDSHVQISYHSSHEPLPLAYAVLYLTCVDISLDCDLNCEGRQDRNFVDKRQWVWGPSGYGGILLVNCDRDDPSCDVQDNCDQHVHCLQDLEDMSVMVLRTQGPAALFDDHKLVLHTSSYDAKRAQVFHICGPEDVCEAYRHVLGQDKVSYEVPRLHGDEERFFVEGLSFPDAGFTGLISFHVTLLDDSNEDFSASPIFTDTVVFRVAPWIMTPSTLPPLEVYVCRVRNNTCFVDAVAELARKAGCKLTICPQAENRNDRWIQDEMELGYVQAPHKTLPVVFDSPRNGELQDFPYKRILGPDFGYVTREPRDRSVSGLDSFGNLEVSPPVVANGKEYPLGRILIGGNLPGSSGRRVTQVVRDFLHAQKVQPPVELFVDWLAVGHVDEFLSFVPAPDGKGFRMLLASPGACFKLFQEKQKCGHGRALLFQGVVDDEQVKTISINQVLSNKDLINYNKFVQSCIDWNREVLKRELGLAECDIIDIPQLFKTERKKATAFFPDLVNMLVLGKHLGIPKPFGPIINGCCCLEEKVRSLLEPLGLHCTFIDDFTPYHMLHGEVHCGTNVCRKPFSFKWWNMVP
The series can be described thus: PAD3 selectivity biochemical assay measuring ammonia release. The note with it: 10 semi-log concentrations, highest concentration tested 30 µM.

A further series can be described thus: Rat pharmacokinetics. The note with it: in vivo, dose not given. An excerpt:
Supplement 41598_2023_30246_MOESM1_ESM.docx, table 3: Supplementary Table S3. In vivo pharmacokinetic parameters of JBI-589 in mouse and rat | column: Dose; t1/2; Cmax; C0; AUC0-t; AUC0-∞; CL; F

Consider `Cc1c(-c2cc3ccccc3n2Cc2ccc(F)cc2)nc2cc(C(=O)N3CCC[C@@H](N)C3)ccn12` [JBI-589, (R)-(3-aminopiperidin-1-yl)(2-(1-(4-fluorobenzyl)-1H-indol-2-yl)-3-methylimidazo[1,2-a]pyridin-7-yl)methanone], for which the “inhibitory activity against PAD3” value at human recombinant PAD3 is reported as “did not have any inhibitory activity”. In “Rat pharmacokinetics” (2 mg/Kg, IV), this compound returned an AUC(0-inf) of 1390 ng·h/mL, an AUC(0-t) of 1320 ng·h/mL, a C0 of 451 ng/mL and a Cmax of 419 ng/mL. In the series “Rat pharmacokinetics” (2 mg/Kg, IV), this compound gave a Vd of 13.2 L/kg, a clearance of 24.3 mL/min/kg and a half-life of 379 min. In the series “Rat pharmacokinetics” (10 mg/Kg, PO), this compound showed a total exposure AUC(0-inf) of 3580 ng·h/mL, an AUC(0-t) of 3390 ng·h/mL, a Cmax of 335 ng/mL and a bioavailability of 51.4%. Moreover, the half-life in “Rat pharmacokinetics” (10 mg/Kg, PO) was 336 min.
